The structures appear in SMILES notation.

The test has as its system wild type mice. As to the kind of experiment: two-bottle choice alcohol preference with fructokinase inhibitor. Type of test: in vivo. Particulars: wild type mice on 10 percent alcohol vs water, fructokinase inhibitor administered for 4 weeks, FIG. 2G. From the text: FIG. 2C provides delta FosB expression and densitometry in nucleus accumbens (Nacc) of wild type mice exposed to 0%, 3%, 6% and 10% alcohol for 10 weeks. FIG. 2D includes delta FosB expression and densitometry in nucleus accumbens (Nacc) of wild type and fructokinase knockout mice exposed to 10% alcohol for 10 weeks. […] FIG. 2F provides evidence of conditioned place preference in wild type and fructokinase knockout mice injected alcohol (2 g/kg). Data represents preference shifts for the paired section after vs before conditioning (time spent in the paired chamber posttest-pretest). […] One Way ANOVA with Tukey post hoc analysis; n=5 mice per group. Further evidence that KHK may mediate alcohol preference is shown by a conditioned place preference study, in which mice are injected with either alcohol or saline then placed in a distinctly different section of the apparatus for 4 alcohol and 4 saline trials. The mice were then tested in an alcohol-free state to determine whether they preferred the section of the apparatus that was paired with alcohol. […] It was also determined that preference for alcohol could be blocked by administering a fructokinase inhibitor (i.e., osthol) for 4 weeks to wild type mice on 10 percent alcohol. […] Thus, these studies show the novel finding that blocking fructokinase can block the craving for alcohol.

In the case of `COc1ccc2ccc(=O)oc2c1CC=C(C)C` [osthol], the “reduced preference for alcohol in a two bottle preference system” value amounted to 50%.

The record behind these values is patent US12161621B2, “Methods for fructokinase mediation of alcohol craving and alcohol induced liver disease” (REGENTS OF THE UNIVERSITY OF COLORADO, A BODY CORPORATE, priority 2018, dated 2024).
